Each block holds one molecule with its values, some of them ahead of it. The source made the active and inactive calls.
Experiments:
Mu-type opioid receptor = Mu-type opioid receptor (Homo sapiens, UniProt P35372); experiment: HTS Image-Based Screen for Agonists of the MOR Receptor. [Related pubchem assays (depositor defined):AID1777, AID1785, AID1786, AID2133]; format: functional;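 note: imaging of beta-arrestin GFP recruitment into spots after receptor activation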
[1] = inhibitors of intracellular T. cruzi replication, confirmation, NIH3T3 host cells, beta-gal luminescence (AID 2044); format: functional, cell-based;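 note: intracellular parasites grown in NIH/3T3 mouse fibroblasts as host cells; luminescent beta-galactosidase reporter signal from transgenic T. cruzi replicating inside host cells; inhibitors lower the luminescence signal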
[2] = target: T1, Kappa-type opioid receptor (Homo sapiens, UniProt P41145); format: functional
T1 sequence (P41145 whole entry): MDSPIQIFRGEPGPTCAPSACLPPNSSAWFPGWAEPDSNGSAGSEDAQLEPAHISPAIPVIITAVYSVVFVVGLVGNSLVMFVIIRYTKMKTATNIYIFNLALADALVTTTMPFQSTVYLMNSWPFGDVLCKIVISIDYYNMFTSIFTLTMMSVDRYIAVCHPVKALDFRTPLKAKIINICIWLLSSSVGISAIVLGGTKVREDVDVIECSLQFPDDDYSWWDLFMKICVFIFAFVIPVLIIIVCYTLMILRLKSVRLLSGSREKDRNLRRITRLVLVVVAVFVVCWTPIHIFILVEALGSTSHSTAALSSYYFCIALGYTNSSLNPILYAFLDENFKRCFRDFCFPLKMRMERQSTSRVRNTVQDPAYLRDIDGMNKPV

[3] = LGR2 antagonists, dose response, cell-based, HEK293, CRE-luciferase reporter, cherry pick, set 2 (AID 743343); format: functional;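 note: transfected cells were stimulated with diluted bursicon conditioned medium after compound addition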
[4] = MC4R antagonists, dose response, counter-screen for LGR2 antagonist project, cell-based, plate reader, cherry pick (AID 743444); format: functional;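 note: transfected HEK 293 cells stimulated with alpha-MSH peptide; potency of inhibitors of the alpha-MSH evoked signal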
[5] = inhibitors of PGC1a acetylation in cells, dose response, cell-based, cherry-picked samples (AID 720514); format: functional;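 note: potency may reflect raised or lowered acetylation signal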
CHO = experiment: cytotoxicity in TLR9-MyD88 CHO cells, dose response, cytotoxicity control for TLR9-MyD88 binding inhibitor project, cell-based, luminescence (AID 588339); format: functional, hamster; settings: Cricetulus griseus;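 note: CHO cells stably coexpressing TLR9 and MyD88 fusions from primary screen; compound exposure lasted 48 hours before viability readout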
Beta Lactamase = Beta Lactamase (Pseudomonas aeruginosa, UniProt Q932Y6); experiment: beta-lactamase reporter inhibitor potency, dose response, artefact control for TLR9-MyD88 binding inhibitor project, BLA reporter cells, FRET fluorescence (AID 588341); format: cell-based;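 note: cell based assay in CHO-K1 cells stably expressing beta-lactamase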
Sequence of Beta Lactamase (Q932Y6 whole entry): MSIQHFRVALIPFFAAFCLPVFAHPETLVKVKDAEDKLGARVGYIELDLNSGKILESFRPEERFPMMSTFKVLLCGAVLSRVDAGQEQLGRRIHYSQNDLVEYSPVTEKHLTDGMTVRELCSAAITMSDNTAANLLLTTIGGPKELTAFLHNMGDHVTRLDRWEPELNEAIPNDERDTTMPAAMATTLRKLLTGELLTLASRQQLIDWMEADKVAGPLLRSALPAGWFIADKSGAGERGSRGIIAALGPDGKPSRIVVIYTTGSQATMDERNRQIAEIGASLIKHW

[6] = target: T1, Kappa-type opioid receptor; format: functional; remark: listed apart in the source
[7] = HEK293 cell cytotoxicity, dose response, cytotoxicity control, plate reader, cherry-picked samples (AID 743446); format: functional, cell-based
[8] = target: T2, Delta-type opioid receptor (Homo sapiens, UniProt P41143); experiment: HTS Image-Based Screen for Antagonists of the DOR Receptor. [Related pubchem assays (depositor defined):AID1777, AID1785, AID1786, AID2133]; format: functional
T2 sequence (P41143 whole entry): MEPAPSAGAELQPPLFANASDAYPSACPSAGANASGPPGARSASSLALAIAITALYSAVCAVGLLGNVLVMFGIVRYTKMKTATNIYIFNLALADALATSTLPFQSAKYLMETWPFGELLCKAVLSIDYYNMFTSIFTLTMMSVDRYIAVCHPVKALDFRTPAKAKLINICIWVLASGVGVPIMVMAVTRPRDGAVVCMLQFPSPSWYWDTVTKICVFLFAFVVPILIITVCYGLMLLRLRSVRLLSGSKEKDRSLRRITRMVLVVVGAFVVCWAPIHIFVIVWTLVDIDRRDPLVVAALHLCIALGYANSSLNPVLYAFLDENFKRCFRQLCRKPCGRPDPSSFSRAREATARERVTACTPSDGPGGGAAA

[9] = inhibitors of SNCA 5'UTR-driven reporter translation, confirmation, H4 neuroglioma cells, luminescence (AID 1988); format: functional, cell-based
[10] = HepG2 cell cytotoxicity, dose response, cytotoxicity control, plate reader, cherry-pick, antagonist series (AID 743416); format: functional, cell-based
[11] = non-specific cell cytotoxicity, dose response, cytotoxicity control for PAX8 inhibitor project, plate reader, dry powder samples (AID 743021); format: functional, cell-based
Paired box protein Pax-8 = Paired box protein Pax-8 (Homo sapiens, UniProt Q06710); experiment: inhibitors of PAX8-driven TPO luciferase reporter, dose response, RMG-I cells, cherry-pick (AID 687027); format: functional, cell-based;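 note: luciferase reporter driven by Pax8 target thyroperoxidase promoter measured by SteadyGlo luminescence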
Sequence of Paired box protein Pax-8 (Q06710 whole entry): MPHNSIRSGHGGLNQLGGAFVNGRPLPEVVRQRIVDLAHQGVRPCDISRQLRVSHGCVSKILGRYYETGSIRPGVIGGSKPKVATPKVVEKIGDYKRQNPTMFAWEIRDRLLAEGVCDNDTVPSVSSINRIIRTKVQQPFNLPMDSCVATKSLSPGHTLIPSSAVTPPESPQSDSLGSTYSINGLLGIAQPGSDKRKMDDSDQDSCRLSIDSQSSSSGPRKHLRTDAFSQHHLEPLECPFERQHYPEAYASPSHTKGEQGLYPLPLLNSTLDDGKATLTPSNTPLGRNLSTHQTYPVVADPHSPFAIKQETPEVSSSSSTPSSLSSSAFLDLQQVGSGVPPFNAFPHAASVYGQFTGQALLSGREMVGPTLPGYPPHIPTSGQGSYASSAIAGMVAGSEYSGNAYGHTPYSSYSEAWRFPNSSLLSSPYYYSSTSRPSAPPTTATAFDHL

[12] = target: T2, Delta-type opioid receptor; experiment: HTS Image-Based Screen for Agonists of the DOR Receptor. [Related pubchem assays (depositor defined):AID1777, AID1786, AID2133]; format: functional
[13] = cytotoxicity toward NIH3T3 fibroblasts, dose response, counter-screen, cell-based, ATP luminescence, mouse fibroblasts (AID 2010); format: functional;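 note: cells exposed to compound for about 90 hours before reading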
[14] = A549 cell cytotoxicity, dose response, cytotoxicity control, plate reader, cherry-pick, antagonist series (AID 743412); format: functional, cell-based
[15] = inhibitors of firefly luciferase expression or activity, dose response, H4 neuroglioma cells, luminescence (AID 1990); format: functional, cell-based
[16] = target: T3, Heat shock factor protein 1 (Mus musculus, UniProt P38532); experiment: HSF1 potentiators in luciferase reporter cells, confirmation, cell-based, NIH3T3, luminescence, dose retest (AID 435004); format: functional;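 note: stress induced by proteasome inhibitor MG132 added 30 min after compound; luciferase reporter driven by HSF1 response element in NIH3T3 cells; actives raise luminescence as potentiators of the MG132 stress response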
T3 sequence (P38532 whole entry): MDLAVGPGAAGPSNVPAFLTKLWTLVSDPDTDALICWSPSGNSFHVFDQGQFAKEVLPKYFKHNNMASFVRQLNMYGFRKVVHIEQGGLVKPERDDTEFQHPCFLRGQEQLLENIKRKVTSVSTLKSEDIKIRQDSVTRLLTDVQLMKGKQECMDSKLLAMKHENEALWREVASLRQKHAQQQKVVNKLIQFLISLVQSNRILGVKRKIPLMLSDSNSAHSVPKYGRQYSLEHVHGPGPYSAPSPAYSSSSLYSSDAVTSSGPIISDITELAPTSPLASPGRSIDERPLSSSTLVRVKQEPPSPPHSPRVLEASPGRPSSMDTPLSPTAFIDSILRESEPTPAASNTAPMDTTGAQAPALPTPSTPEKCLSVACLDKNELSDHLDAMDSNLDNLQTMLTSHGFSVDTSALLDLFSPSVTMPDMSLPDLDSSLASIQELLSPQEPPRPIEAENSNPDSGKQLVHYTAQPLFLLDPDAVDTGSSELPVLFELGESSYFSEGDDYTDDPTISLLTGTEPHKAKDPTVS

Beta-galactosidase = Beta-galactosidase (Escherichia coli, UniProt Q8VNN2); format: functional
Sequence of Beta-galactosidase (Q8VNN2 whole entry): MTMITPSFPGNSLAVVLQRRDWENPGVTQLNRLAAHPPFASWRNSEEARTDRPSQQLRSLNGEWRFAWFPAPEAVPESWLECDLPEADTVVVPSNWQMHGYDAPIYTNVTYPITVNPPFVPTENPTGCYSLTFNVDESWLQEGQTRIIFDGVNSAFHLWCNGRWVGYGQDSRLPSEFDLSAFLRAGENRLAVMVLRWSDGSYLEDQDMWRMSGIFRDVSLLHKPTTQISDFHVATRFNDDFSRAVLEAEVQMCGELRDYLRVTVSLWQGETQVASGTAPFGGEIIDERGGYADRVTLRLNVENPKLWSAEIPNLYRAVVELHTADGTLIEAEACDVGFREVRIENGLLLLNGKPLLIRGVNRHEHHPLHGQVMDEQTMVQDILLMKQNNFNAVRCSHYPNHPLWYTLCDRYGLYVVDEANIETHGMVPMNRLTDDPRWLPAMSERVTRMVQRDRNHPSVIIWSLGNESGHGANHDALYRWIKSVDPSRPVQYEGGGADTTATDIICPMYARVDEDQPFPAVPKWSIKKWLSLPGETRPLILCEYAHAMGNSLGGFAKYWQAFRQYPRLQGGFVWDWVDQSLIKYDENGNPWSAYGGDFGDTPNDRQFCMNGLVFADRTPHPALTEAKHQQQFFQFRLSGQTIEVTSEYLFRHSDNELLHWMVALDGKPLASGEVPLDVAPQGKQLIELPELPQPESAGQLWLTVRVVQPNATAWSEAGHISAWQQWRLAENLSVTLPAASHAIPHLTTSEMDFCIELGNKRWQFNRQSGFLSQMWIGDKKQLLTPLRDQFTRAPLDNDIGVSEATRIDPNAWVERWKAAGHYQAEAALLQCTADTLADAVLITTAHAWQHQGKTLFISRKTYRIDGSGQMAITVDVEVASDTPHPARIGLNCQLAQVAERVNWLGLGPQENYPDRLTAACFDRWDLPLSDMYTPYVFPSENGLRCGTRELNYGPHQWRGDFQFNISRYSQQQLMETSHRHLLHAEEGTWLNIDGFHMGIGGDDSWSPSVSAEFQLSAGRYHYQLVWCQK

[17] = Counterscreen for AddAB inhibitors: absorbance-based bacterial cell-based high throughput dose response assay for inhibitors of bacterial viability. [Related pubchem assays (depositor defined):AID435030, AID449728, AID449731, AID488942, AID488955, AID488956]; format: functional
Exodeoxyribonuclease V = Exodeoxyribonuclease V (Escherichia coli (strain K12), UniProt P04993+P07648+P08394); experiment: E. coli RecBCD inhibitors, dose response, counter-screen for AddAB inhibitor project, absorbance, V66 E. coli, mutant T4 phage (AID 492957); format: functional, cell-based, Escherichia coli str. K-12 substr. MG1655
INS1 = experiment: beta cell apoptosis inhibitors, cytokine rescue, dose response, luminescence, retest (AID 449756); format: functional, cell-based; settings: Rattus norvegicus;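 note: cell death triggered by IL-1 beta plus TNF-alpha plus IFN-gamma mixture; protective hits raise ATP signal compared with cytokine alone wells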
H9c2 = experiment: cells; format: functional, cell-based; settings: Rattus norvegicus, H9c2, Myocardium;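 note: confirmatory concentration-response retest of ultra-high-throughput screening hits for modulation of myocardial damage; cell death induced by hydrogen peroxide oxidative stress; compound pretreatment for 60 min then peroxide exposure for 2 h; potency is for protecting the cells against peroxide damage rather than for killing them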
[18] = target: Heat shock protein HSP 90-alpha (Homo sapiens, UniProt P07900); format: functional, organism-based
[19] = human group III sPLA2 inhibitors, dose response, biochemical, QFRET, IC50 (AID 743457);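 note: green fluorescence rise as the enzyme cleaves BODIPY PC-A2 in liposomes; potency for inhibition of the enzyme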
Cannabinoid receptor 1 [20] = target: T4, Cannabinoid receptor 1 (Homo sapiens, UniProt P21554); experiment: SAR analysis of antagonists of the Cannabinoid Receptor 1 using an Image-Based Assay - Set 4. [Related pubchem assays (depositor defined):AID2013, AID2026]; format: functional
T4 sequence (P21554 whole entry): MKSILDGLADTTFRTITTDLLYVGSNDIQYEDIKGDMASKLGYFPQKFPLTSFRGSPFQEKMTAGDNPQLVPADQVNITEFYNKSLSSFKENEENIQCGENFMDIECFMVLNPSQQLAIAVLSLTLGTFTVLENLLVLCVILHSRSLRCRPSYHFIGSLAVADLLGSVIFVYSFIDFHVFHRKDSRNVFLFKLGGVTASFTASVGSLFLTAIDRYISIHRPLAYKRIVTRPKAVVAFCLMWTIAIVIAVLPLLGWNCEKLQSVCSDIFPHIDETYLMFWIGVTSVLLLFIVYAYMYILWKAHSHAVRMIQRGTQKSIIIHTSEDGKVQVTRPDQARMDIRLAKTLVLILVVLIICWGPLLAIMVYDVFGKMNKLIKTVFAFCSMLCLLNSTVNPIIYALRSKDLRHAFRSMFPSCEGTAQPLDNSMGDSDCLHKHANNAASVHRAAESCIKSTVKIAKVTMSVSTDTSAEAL

Cannabinoid receptor 2 [21] = target: T5, Cannabinoid receptor 2 (Homo sapiens, UniProt P34972); experiment: SAR analysis of antagonists of the Cannabinoid Receptor 2 using an Image-Based Assay - Set 3. [Related pubchem assays (depositor defined):AID2013, AID2026]; format: functional
T5 sequence (P34972 whole entry): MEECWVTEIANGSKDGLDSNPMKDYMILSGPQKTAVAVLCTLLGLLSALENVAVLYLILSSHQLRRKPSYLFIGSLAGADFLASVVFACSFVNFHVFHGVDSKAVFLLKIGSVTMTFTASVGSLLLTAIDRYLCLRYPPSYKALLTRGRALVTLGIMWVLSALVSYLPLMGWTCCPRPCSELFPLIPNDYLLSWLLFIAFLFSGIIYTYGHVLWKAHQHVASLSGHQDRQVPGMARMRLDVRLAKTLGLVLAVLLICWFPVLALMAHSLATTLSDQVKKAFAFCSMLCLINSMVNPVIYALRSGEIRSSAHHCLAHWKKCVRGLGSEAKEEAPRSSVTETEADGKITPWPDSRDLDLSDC

[22] = target: G-protein coupled receptor 55 (Homo sapiens, UniProt Q9Y2T6); experiment: SAR Analysis of Selective Antagonists of GPR55 using an Image-Based Assay - Set 4. [Related pubchem assays (depositor defined):AID2013, AID2026]; format: functional;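 note: antagonism of response to 5 µM lysophosphatidylinositol agonist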
Sequence of G-protein coupled receptor 55 (Q9Y2T6 whole entry): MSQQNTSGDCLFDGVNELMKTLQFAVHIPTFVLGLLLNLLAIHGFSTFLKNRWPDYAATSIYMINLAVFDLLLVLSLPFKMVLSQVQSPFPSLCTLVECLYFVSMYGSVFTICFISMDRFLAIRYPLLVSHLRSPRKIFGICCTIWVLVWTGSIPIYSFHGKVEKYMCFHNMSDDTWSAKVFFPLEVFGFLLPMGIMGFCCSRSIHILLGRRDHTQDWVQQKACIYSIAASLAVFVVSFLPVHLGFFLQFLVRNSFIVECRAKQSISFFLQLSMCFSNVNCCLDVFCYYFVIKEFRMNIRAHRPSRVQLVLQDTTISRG

Cannabinoid receptor 2 [23] = target: T5, Cannabinoid receptor 2; experiment: SAR analysis of agonists of the Cannabinoid Receptor 2 using an Image-Based Assay - Set 3. [Related pubchem assays (depositor defined):AID2013, AID2026]; format: functional
Cannabinoid receptor 1 [24] = target: T4, Cannabinoid receptor 1; experiment: SAR analysis of agonists of the Cannabinoid Receptor 1 using an Image-Based Assay - Set 4. [Related pubchem assays (depositor defined):AID2013, AID2026]; format: functional
[25] = target: T6, G-protein coupled receptor 35 (Homo sapiens, UniProt Q9HC97); experiment: SAR analysis of Agonists of the GPR35 Receptor using an Image-Based Assay - Set 4. [Related pubchem assays (depositor defined):AID2013, AID2026]; format: functional
T6 sequence (Q9HC97 whole entry): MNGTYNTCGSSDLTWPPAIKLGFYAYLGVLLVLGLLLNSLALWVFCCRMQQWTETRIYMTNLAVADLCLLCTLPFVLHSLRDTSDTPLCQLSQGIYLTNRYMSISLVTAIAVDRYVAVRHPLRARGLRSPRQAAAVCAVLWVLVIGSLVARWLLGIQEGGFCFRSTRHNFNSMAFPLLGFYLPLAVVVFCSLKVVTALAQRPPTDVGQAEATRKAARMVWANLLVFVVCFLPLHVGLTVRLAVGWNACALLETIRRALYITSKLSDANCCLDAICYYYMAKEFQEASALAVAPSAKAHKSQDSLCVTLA

[26] = target: T6, G-protein coupled receptor 35; experiment: SAR analysis of Antagonists of the GPR35 Receptor using an Image-Based Assay - Set 6. [Related pubchem assays (depositor defined):AID2013, AID2026]; format: functional
[27] = target: T7, Tyrosine-protein phosphatase non-receptor type 7 (Homo sapiens, UniProt P35236); format: functional
T7 sequence (P35236 whole entry): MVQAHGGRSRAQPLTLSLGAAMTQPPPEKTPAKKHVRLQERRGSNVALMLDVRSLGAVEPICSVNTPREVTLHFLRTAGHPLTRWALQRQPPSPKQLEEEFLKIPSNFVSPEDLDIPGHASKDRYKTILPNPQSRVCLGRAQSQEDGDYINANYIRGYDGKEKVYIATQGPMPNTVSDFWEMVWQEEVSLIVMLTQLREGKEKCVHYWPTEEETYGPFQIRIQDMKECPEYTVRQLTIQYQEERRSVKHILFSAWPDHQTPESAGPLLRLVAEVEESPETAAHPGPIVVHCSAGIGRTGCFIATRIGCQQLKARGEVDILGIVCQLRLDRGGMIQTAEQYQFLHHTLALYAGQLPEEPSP

[28] = target: T8, Tyrosine-protein phosphatase non-receptor type 22 (Homo sapiens, UniProt Q9Y2R2); format: functional
T8 sequence (Q9Y2R2 whole entry): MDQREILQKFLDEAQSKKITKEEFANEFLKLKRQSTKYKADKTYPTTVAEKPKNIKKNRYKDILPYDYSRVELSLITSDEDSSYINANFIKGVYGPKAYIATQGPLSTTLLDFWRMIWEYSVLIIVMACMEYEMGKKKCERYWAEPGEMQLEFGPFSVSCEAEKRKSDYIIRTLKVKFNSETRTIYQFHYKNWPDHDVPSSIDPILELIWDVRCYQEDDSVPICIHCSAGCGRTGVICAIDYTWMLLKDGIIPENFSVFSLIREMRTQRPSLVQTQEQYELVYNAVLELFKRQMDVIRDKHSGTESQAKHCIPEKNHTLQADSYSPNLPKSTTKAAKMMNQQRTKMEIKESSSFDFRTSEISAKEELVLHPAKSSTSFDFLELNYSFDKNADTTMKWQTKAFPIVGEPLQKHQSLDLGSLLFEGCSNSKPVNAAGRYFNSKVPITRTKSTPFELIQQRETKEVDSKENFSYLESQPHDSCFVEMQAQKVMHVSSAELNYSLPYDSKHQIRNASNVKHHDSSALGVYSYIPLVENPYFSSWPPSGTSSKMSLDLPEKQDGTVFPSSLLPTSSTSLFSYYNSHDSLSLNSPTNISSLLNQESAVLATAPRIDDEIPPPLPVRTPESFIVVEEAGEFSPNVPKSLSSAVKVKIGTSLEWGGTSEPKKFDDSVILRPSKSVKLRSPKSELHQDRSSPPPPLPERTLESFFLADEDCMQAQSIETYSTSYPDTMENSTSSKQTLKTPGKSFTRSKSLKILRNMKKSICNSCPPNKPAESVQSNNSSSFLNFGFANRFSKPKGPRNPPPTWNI

[29] = target: T8, Tyrosine-protein phosphatase non-receptor type 22; format: functional; remark: listed apart in the source
[30] = target: T1, Kappa-type opioid receptor; experiment: SAR analysis of small molecule agonists of the kappa opioid receptor via a luminescent beta-arrestin assay - Set 3. [Related pubchem assays (depositor defined):AID1777, AID1785, AID1786, AID1966, AID2133, AID2136, AID2284, AID2500]; format: functional

Sequence of Mu-type opioid receptor (P35372 whole entry): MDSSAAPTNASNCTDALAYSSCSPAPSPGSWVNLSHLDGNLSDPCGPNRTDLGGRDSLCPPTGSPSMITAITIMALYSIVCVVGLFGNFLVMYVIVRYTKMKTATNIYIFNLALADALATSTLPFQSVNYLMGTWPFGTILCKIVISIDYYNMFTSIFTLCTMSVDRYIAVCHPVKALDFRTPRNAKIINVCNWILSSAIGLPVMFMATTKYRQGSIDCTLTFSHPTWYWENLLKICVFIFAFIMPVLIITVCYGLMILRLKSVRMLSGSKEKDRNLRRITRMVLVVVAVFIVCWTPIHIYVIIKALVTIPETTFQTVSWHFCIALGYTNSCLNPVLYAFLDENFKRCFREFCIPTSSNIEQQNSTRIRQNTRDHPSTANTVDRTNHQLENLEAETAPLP

Compound: S=c1sc2c(Cl)ncnc2n1-c1ccccc1
EC50 (Mu-type opioid receptor): > 32 µM (inactive)
EC50 [1]: 2.26 µM (active)
IC50 [2]: 3.55 µM
AC50 [3]: 17.8 µM (active)
AC50 [4]: 24.5 µM (active)
AC50 [5]: 2.79 µM (active)
IC50 (CHO): 9.35 µM (active)
IC50 (Beta Lactamase): > 49.7 µM (inactive)
IC50 [6]: 7.27 µM (active)
AC50 [7]: 8.88 µM (active)
IC50 [8]: 4.7 µM (active)
EC50 [9]: 7.71 µM (active)
AC50 [10]: 13.2 µM (active)
AC50 [11]: 60.6 µM (active)
AC50 (Paired box protein Pax-8): 7.52 µM (active)
EC50 [12]: > 32 µM (inactive)
EC50 [13]: 14.4 µM (active)
AC50 [14]: 8.81 µM (active)
EC50 [15]: 8.14 µM (active)
EC50 [16]: 17.6 µM (active)
EC50 (Beta-galactosidase): > 31.5 µM (inactive)

Compound: Cc1onc(-c2ccccc2)c1C(=O)NC(=S)NNC(=O)c1ccccc1O
IC50 [17]: > 119 µM (inactive)
IC50 (Exodeoxyribonuclease V): > 119 µM (inactive)
AC50 (INS1): 7.21 µM (active)
IC50 (H9c2): > 79 µM (inactive)
AC50 [18]: 2.92 µM (active)
IC50 [19]: > 122 µM (inactive)

Compound: Cc1nc(N2CCN(C(=O)c3cccs3)CC2)c2c3c(sc2n1)CCCC3
IC50 (Cannabinoid receptor 1 [20]): 3.94 µM (active)
IC50 (Cannabinoid receptor 2 [21]): > 32 µM (inactive)
IC50 [22]: 4.13 µM (active)
EC50 (Cannabinoid receptor 2 [23]): > 32 µM (inactive)
EC50 (Cannabinoid receptor 1 [24]): > 32 µM (inactive)
EC50 [25]: > 32 µM (inactive)
IC50 [26]: > 32 µM (inactive)

The next lines start with the values.

IC50 (Cannabinoid receptor 1 [20]): 0.946 µM (active)
IC50 (Cannabinoid receptor 2 [21]): 5.4 µM (active)
IC50 [22]: 8.04 µM (active)
EC50 (Cannabinoid receptor 2 [23]): > 32 µM (inactive)
EC50 (Cannabinoid receptor 1 [24]): > 32 µM (inactive)
EC50 [25]: > 32 µM (inactive)
IC50 [26]: > 32 µM (inactive)
Compound: COc1ccc(-n2cc3c(-c4cccc(Br)c4)nnc(C)c3n2)cc1

IC50 [27]: > 79.4 µM (inactive)
IC50 [28]: > 79.4 µM (inactive)
IC50 [29]: > 79.4 µM (inactive)
Compound: NC(=O)Nc1ccccc1C(=O)NCCc1ccccc1

IC50 [27]: > 79.4 µM (inactive)
IC50 [28]: > 79.4 µM (inactive)
IC50 [29]: > 79.4 µM (inactive)
Compound: COc1ccc(N(CC(=O)NC(C)C)C(=O)CCC(=O)Nc2ccccn2)cc1

EC50 [30]: 4.06 µM (active)
Compound: Brc1ccc(CSc2nnc(-c3ccccn3)n2Cc2ccccc2)cc1
